Measured values published in US9974792B2, “Methods for treating cancers” (Gilead Sciences, Inc., priority 2013, dated 2018).

Experiments:
[1] = system: subjects with relapsed or refractory CLL
Experimental: The safety and efficacy of entospletinib was tested in a phase 2 trial in separate cohorts of subjects with CLL, indolent non-Hodgkin lymphoma (iNHL), mantle cell lymphoma (MCL), or diffuse large B-cell lymphoma (DLBCL). This trial was registered at www.clinicaltrials.gov as #NCT01799889.
A phase 2, open-label, single-agent study was completed to evaluate the efficacy, safety, tolerability, and pharmacodynamics of entospletinib in subjects with relapsed or refractory hematologic malignancies.
Subjects who were at least 18 years of age with a documented diagnosis of CLL, as established by the International Workshop on CLL, with progressive disease (PD) were eligible for the study. […] The presence of radiographically measurable lymphadenopathy or extranodal lymphoid malignancy as assessed by computed tomography (CT) or magnetic resonance imaging (MRI) was required for enrollment. […] A Karnofsky performance status of at least 60% and a life expectancy of at least 3 months were required. Required screening laboratory data were collected within 5 weeks before administration of study drug. Subjects with any degree of neutropenia, thrombocytopenia, or anemia attributed to the malignancy by the treating physician were eligible to enroll.
Treatment with entospletinib was at a dose of 800 mg twice a day over 28-day cycles under fasted conditions. Fasting was defined as no food or liquids other than water for 2 hours pre- and 1 hour post-dose.
CT or MRI scans were used to document sites of disease, identify target lesions, and assess response and disease progression. […] The findings of an independent review committee were used for analyses of PFS and other tumor control end points.
Secondary end points included tolerability, objective response rate (ORR), duration of response (DOR), time to response, and lymph node response rate. […] Exploratory end points included plasma drug concentrations and pharmacodynamic biomarkers.
PFS was defined as the interval from start of treatment to disease progression or death from any cause and analyzed using Kaplan-Meier methods. The findings of the Independent Review Committee (IRC) were considered primary for analyses of PFS and other tumor control responses. […] DOR was defined as the time from when the first response (CR or PR) was achieved until the earlier of the first documentation of definitive disease progression or death from any cause.

[2] = system: human subjects with CLL or NHL; test: Example 1: safety, disposition and adverse events (Safety Data Set);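 further: evaluated subjects had CLL, FL, DLBCL, MCL, LPL, SLL or MZL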
Experimental: Subjects having various hematologic malignancies were evaluated, including subjects with chronic lymphocytic leukemia (CLL), follicular lymphoma (FL), diffuse large B-cell lymphoma (DLBCL), mantle cell lymphoma (MCL), lymphoplasmacytic lymphoma (LPL), small lymphocytic lymphoma (SLL), and marginal zone lymphoma (MZL). The sample size was 10-40/arm.
Alanine aminotransferase (ALT) was also measured in the subjects.

[3] = out of 78 subjects, 800 mg BID fasting

c1cn2cc(-c3ccc4cn[nH]c4c3)nc(Nc3ccc(N4CCOCC4)cc3)c2n1 [compound of formula I, 6-(1H-indazol-6-yl)-N-(4-morpholinophenyl)imidazo[1,2-a]pyrazin-8-amine]
DOR exceeded by seventy-five percent of subjects ([1]; 23 responding CLL subjects): > 6.5 months | median DOR ([1]; 23 responding CLL subjects): not yet been reached | subjects achieving at least a 50% decrease in SPD from baseline ([1]; 39 evaluable CLL subjects): 61.5% | subjects achieving reduction in adenopathy ([1]; 39 evaluable CLL subjects): 94.5% | subjects with a less than 50% decrease in SPD from baseline ([1]; 39 evaluable CLL subjects): 33% | Discontinued study drug: AEs, % ([1]; CLL N = 41): (8.8%) | Discontinued study drug: Death, % ([1]; CLL N = 41): (2.4%) | Discontinued study drug: Progressive disease, % ([1]; CLL N = 41): (34.1%) | PFS exceeded by seventy-five percent of the subjects ([1]; CLL cohort): > 5.4 months | death (PFS event), % ([1]; CLL cohort, 41 subjects): 2.4% | subjects with PFS events, % ([1]; CLL cohort, 41 subjects): 31.7% | subjects with disease progression, % ([1]; CLL cohort, 41 subjects): 29.3% | 24 weeks PFS (primary end point) ([1]; CLL cohort, 41 subjects, median follow up 5.5 months): 69.8% | Median PFS ([1]; CLL cohort, median follow up 5.5 months): not yet been reached | ORR ([1]; CLL subjects): 56.1% | subjects achieving a CR ([1]; CLL subjects): no subject | subjects achieving a PR ([1]; CLL subjects): 23 subjects | subjects with dose reduced to 400 mg ([1]; CLL subjects): 4.9% | subjects with dose reduced to 600 mg ([1]; CLL subjects): 14.6% | subjects with progressive disease (best response) ([1]; CLL subjects): 2.4% | subjects with stable disease ([1]; CLL subjects): 44% | time for mean absolute lymphocyte count to return to baseline ([1]; CLL subjects): approximately 3 months | nodal response (50% reduction in SPD) with persistent lymphocytosis, % ([1]; CLL subjects with stable disease): 4.9% | nodal response with persistent lymphocytosis, subjects ([1]; CLL subjects, additional to ORR): 2 subjects | subjects requiring at least one dose reduction from the starting dose ([1]; CLL subjects, starting dose 800 mg twice a day): 19.5% | mean absolute lymphocyte count ([1]; day 8, rose from 50,090): 72,980 lymphocytes per microliter | responding subjects with a PR at the first post-baseline evaluation ([1]; of 23 responding subjects, scheduled at week 8): 65.2% | differences in ORR within subgroups ([1]; sex, age, number of prior therapies, IGHV mutation status, 17p deletion/TP53 mutation status): no significant differences | Discontinuing study drug: Adverse Events, % ([2]; ALL N = 78): (14.1%) | Discontinuing study drug: Progressive Disease, % ([2]; ALL N = 78): (19.2%) | Discontinuing study drug: Related AEs, % ([2]; ALL N = 78): (7.7%) | Discontinuing study drug: Adverse Events, % ([2]; CLL N = 39): (7.7%) | Discontinuing study drug: Progressive Disease, % ([2]; CLL N = 39): (10.3%) | Discontinuing study drug: Related AEs, % ([2]; CLL N = 39): (5.1%) | Discontinuing study drug: Adverse Events, % ([2]; NHL N = 39): (20.5%) | Discontinuing study drug: Progressive Disease, % ([2]; NHL N = 39): (28.2%) | Discontinuing study drug: Related AEs, % ([2]; NHL N = 39): (10.3%) | Any event, All Grades, % ([2]; Safety Data Set N=78): (93.6) % | Constipation, All Grades, % ([2]; Safety Data Set N=78): (21.8) % | Constipation, Grade 1 ([2]; Safety Data Set N=78): 11 | Constipation, Grade 2 ([2]; Safety Data Set N=78): 5 | Constipation, Grade 3 ([2]; Safety Data Set N=78): 1 | Cough, All Grades, % ([2]; Safety Data Set N=78): (14.1) % | Cough, Grade 1 ([2]; Safety Data Set N=78): 9 | Cough, Grade 2 ([2]; Safety Data Set N=78): 1 | Cough, Grade 3 ([2]; Safety Data Set N=78): 1 | Decreased appetite, All Grades, % ([2]; Safety Data Set N=78): (20.5) % | Decreased appetite, Grade 1 ([2]; Safety Data Set N=78): 10 | Decreased appetite, Grade 2 ([2]; Safety Data Set N=78): 6 | Diarrhea, All Grades, % ([2]; Safety Data Set N=78): (28.2) % | Diarrhea, Grade 1 ([2]; Safety Data Set N=78): 20 | Diarrhea, Grade 2 ([2]; Safety Data Set N=78): 2 | Dizziness, All Grades, % ([2]; Safety Data Set N=78): (17.9) % | Dizziness, Grade 1 ([2]; Safety Data Set N=78): 14 | Dyspepsia, All Grades, % ([2]; Safety Data Set N=78): (10.3) % | Dyspepsia, Grade 1 ([2]; Safety Data Set N=78): 3 | Dyspepsia, Grade 2 ([2]; Safety Data Set N=78): 5 | Fatigue, All Grades, % ([2]; Safety Data Set N=78): (43.6) % | Fatigue, Grade 1 ([2]; Safety Data Set N=78): 13 | Fatigue, Grade 2 ([2]; Safety Data Set N=78): 16 | Fatigue, Grade 3 ([2]; Safety Data Set N=78): 5 | Headache, All Grades, % ([2]; Safety Data Set N=78): (20.5) % | Headache, Grade 1 ([2]; Safety Data Set N=78): 13 | Headache, Grade 2 ([2]; Safety Data Set N=78): 2 | Headache, Grade 3 ([2]; Safety Data Set N=78): 1 | Insomnia, All Grades, % ([2]; Safety Data Set N=78): (14.1) % | Insomnia, Grade 1 ([2]; Safety Data Set N=78): 8 | Insomnia, Grade 2 ([2]; Safety Data Set N=78): 3 | Nausea, All Grades, % ([2]; Safety Data Set N=78): (30.8) % | Nausea, Grade 1 ([2]; Safety Data Set N=78): 18 | Nausea, Grade 2 ([2]; Safety Data Set N=78): 4 | Nausea, Grade 3 ([2]; Safety Data Set N=78): 2 | Oedema peripheral, All Grades, % ([2]; Safety Data Set N=78): (12.8) % | Oedema peripheral, Grade 1 ([2]; Safety Data Set N=78): 8 | Oedema peripheral, Grade 2 ([2]; Safety Data Set N=78): 2 | Pyrexia, All Grades, % ([2]; Safety Data Set N=78): (19.2) % | Pyrexia, Grade 1 ([2]; Safety Data Set N=78): 9 | Pyrexia, Grade 2 ([2]; Safety Data Set N=78): 6 | Vomiting, All Grades, % ([2]; Safety Data Set N=78): (10.3) % | Vomiting, Grade 1 ([2]; Safety Data Set N=78): 6 | Vomiting, Grade 2 ([2]; Safety Data Set N=78): 2 | Grade 3 and 4 reversible ALT elevations, % of subjects [2, 3]: 12% | Grade 3 and 4 reversible ALT elevations, number of subjects [2, 3]: 9 subjects
